Target: Vanin-1 (Homo sapiens (Human), UniProt O95497)
Assay: VNN1 inhibitor binding assay (Pantothenate-AMC fluorescence)
Type: biochemical
Conditions: not given
Protocol: Vanin-1 inhibitor binding assays for selected compounds as described herein, and reference compound RR6 (also “(R)-2,4-dihydroxy-3,3-dimethyl-N-(3-oxo-4-phenylbutyl)butanamide”) were examined and the IC50 values of were determined.
5 μL of 3× (45 μM) of Pantothenate-AMC to achieve final concentrations of 15 μM (0.25% DMSO final) were added in a 384 well assay plate followed by the addition of 5 μL of 3× the desired concentration of the tested compounds (Compound 1; Compound 2; and RR6) in 0.75% DMSO to designated wells (0.25% of DMSO final). The range of the compound concentrations tested was 10, 3.33, 1.11, 0.37, 0.12, 0.04, 0.01, 0.0046, 0.001, and 0.0005 μM. 5 μL of 0.75% DMSO were also added to positive and negative control wells.
5 μL of 1.4 ng/μL Vanain-1 was added to the assay plate to achieve a final amount of 7 ng/well, and covered with plate sealer. Another 5 μL of assay buffer was added to negative controls and the assay plate was then centrifuged briefly (1000 rpm for 30 s) in a plate centrifuge. The assay plate was incubated in the dark for 20 minutes at room temperature and immediately read on an Envision 2105, PerkinElmer multimode plate reader.
The fluorescence read was captured at excitation wavelength of 355 nm and emission wavelength of 460 nm. Percent inhibition of the test compounds was calculated using the following equation: […]
In the above equation, “A” is the relative fluorescence units of the test compound (test compound+Pantothenate-AMC+Vanin1); “B” is the relative fluorescence units of the average minimum (DMSO+Pantothenate-AMC+assay buffer); and “C” is the relative fluorescence units of the average maximum (DMSO+Pantothenate-AMC+Vanin1).

Vanin-1, sequence (O95497 22-513): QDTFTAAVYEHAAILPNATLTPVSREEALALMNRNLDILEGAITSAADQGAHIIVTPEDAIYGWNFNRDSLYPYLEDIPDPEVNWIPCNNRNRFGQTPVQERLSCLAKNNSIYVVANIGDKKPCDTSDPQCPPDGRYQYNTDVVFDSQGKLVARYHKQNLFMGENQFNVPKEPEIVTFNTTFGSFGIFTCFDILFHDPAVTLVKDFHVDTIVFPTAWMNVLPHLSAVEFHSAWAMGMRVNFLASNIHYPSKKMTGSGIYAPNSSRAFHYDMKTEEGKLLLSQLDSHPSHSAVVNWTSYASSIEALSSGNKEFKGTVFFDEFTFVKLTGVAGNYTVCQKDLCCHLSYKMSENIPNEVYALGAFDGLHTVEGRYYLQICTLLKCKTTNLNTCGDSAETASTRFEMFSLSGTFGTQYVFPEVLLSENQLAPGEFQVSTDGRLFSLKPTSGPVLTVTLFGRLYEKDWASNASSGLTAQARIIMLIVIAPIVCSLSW

| Compound | IC50 [µM] |
| --- | --- |
| CC(C)(CO)[C@@H](O)C(=O)NCCC(=O)Cc1ccccc1 [RR6, (R)-2,4-dihydroxy-3,3-dimethyl-N-(3-oxo-4-phenylbutyl)butanamide, reference compound] | 1 to 10 |

Same assay, conditions: 15 μM Pantothenate-AMC, 7 ng/well Vanin-1, 20 minutes at room temperature; read-out: Vanin-1 IC50

| Compound | IC50 [µM] |
| --- | --- |
| O=C1NCCc2nc(NCc3cccnc3)ccc21 [Compound 2, 2-((Pyridin-3-ylmethyl)amino)-7,8-dihydro-1,6-naphthyridin-5(6H)-one] | 1 to 10 |
| CN(C)CCN1Cc2nc(NCc3cccnc3)ccc2C1=O [Compound 4, 6-(2-(Dimethylamino)ethyl)-2-((pyridin-3-ylmethyl)amino)-6,7-dihydro-5H-pyrrolo[3,4-b]pyridin-5-one] | 1 to 10 |
| O=C1c2ccc(NCc3cccnc3)nc2CN1c1ccccc1 [Compound 11] | > 10 |
| CN(C)C(C)(C)CN1Cc2nc(NCc3cccnc3)ccc2C1=O [Compound 12, 6-(2-(Dimethylamino)-2-methylpropyl)-2-((pyridin-3-ylmethyl)amino)-6,7-dihydro-5H-pyrrolo[3,4-b]pyridin-5-one] | 1 to 10 |
| CN(C)CCCN1Cc2nc(NCc3cccnc3)ccc2C1=O [Compound 13, 6-(3-(Dimethylamino)propyl)-2-((pyridin-3-ylmethyl)amino)-6,7-dihydro-5H-pyrrolo[3,4-b]pyridin-5-one] | 1 to 10 |
| CC(=O)NCCCN1Cc2nc(NCc3cccnc3)ccc2C1=O [Compound 15, N-(3-(5-Oxo-2-((pyridin-3-ylmethyl)amino)-5,7-dihydro-6H-pyrrolo[3,4-b]pyridin-6-yl)propyl)acetamide] | 1 to 10 |
| O=C1c2ccc(NCc3cccnc3)nc2CN1Cc1cnccn1 [Compound 17] | 1 to 10 |
| CC(C)N1Cc2nc(NCc3cccnc3)ccc2C1=O [Compound 19] | 1 to 10 |
| CC(=O)NCCN1Cc2nc(N[C@H](C)c3cccnc3)ccc2C1=O [Compound 22, (R)—N-(2-(5-oxo-2-((1-(pyridin-3-yl)ethyl)amino)-5,7-dihydro-6H-pyrrolo[3,4-b]pyridin-6-yl)ethyl)acetamide] | > 10 |
| CC(=O)NCCN1Cc2nc(NCc3cncc(F)c3)ccc2C1=O [Compound 26, N-(2-(2-(((5-fluoropyridin-3-yl)methyl)amino)-5-oxo-5,7-dihydro-6H-pyrrolo[3,4-b]pyridin-6-yl)ethyl)acetamide] | 1 to 10 |
| CC(=O)NCCN1Cc2nc(NCc3ccncc3)ccc2C1=O [Compound 27, N-(2-(5-oxo-2-((pyridin-4-ylmethyl)amino)-5,7-dihydro-6H-pyrrolo[3,4-b]pyridin-6-yl)ethyl)acetamide] | 1 to 10 |
| COc1ccccc1CNc1ccc2c(n1)CN(CCNC(C)=O)C2=O [Compound 28, N-(2-(2-((2-methoxybenzyl)amino)-5-oxo-5,7-dihydro-6H-pyrrolo[3,4-b]pyridin-6-yl)ethyl)acetamide] | 1 to 10 |
| COc1ccc(F)cc1CNc1ccc2c(n1)CN(CCNC(C)=O)C2=O [Compound 29, N-(2-(2-((5-fluoro-2-methoxybenzyl)amino)-5-oxo-5,7-dihydro-6H-pyrrolo[3,4-b]pyridin-6-yl)ethyl)acetamide] | 1 to 10 |
| CC(=O)NC(C)(C)CN1Cc2nc(NCc3cccnc3)ccc2C1=O [Compound 38, N-(2-methyl-1-(5-oxo-2-((pyridin-3-ylmethyl)amino)-5,7-dihydro-6H-pyrrolo[3,4-b]pyridin-6-yl)propan-2-yl)acetamide] | 1 to 10 |
| CC(=O)NCCN1Cc2nc(NCc3ccc(C#N)nc3)ccc2C1=O [Compound 40, N-(2-(2-(((6-cyanopyridin-3-yl)methyl)amino)-5-oxo-5,7-dihydro-6H-pyrrolo[3,4-b]pyridin-6-yl)ethyl)acetamide] | 1 to 10 |
| N#Cc1cncc(CNc2ccc3c(n2)CN(CCNC(=O)C2CC2)C3=O)c1 [Compound 43, N-(2-(2-(((5-cyanopyridin-3-yl)methyl)amino)-5-oxo-5,7-dihydro-6H-pyrrolo[3,4-b]pyridin-6-yl)ethyl)cyclopropanecarboxamide] | > 10 |
| CC(=O)NCCN1Cc2nc(NCc3cnccn3)ccc2C1=O [Compound 50] | 1 to 10 |
| CC(=O)NCCN1Cc2nc(NCc3cc(F)c(F)c(F)c3)ccc2C1=O [Compound 71, N-(2-(5-oxo-2-((3,4,5-trifluorobenzyl)amino)-5,7-dihydro-6H-pyrrolo[3,4-b]pyridin-6-yl)ethyl)acetamide] | 1 to 10 |
| CCC(=O)NCCN1Cc2nc(NCc3cc(F)c(F)c(F)c3)ccc2C1=O [Compound 72, N-(2-(5-oxo-2-((3,4,5-trifluorobenzyl)amino)-5,7-dihydro-6H-pyrrolo[3,4-b]pyridin-6-yl)ethyl)propionamide] | 1 to 10 |
| CCC(=O)NCCN1Cc2nc(NCc3cnccc3C(F)(F)F)ccc2C1=O [Compound 74, N-(2-(5-oxo-2-(((4-(trifluoromethyl)pyridin-3-yl)methyl)amino)-5,7-dihydro-6H-pyrrolo[3,4-b]pyridin-6-yl)ethyl)propionamide] | 1 to 10 |
| CCC(=O)NCCN1Cc2nc(NCc3ccc(F)cc3C)ccc2C1=O [Compound 78, N-(2-(2-((4-fluoro-2-methylbenzyl)amino)-5-oxo-5,7-dihydro-6H-pyrrolo[3,4-b]pyridin-6-yl)ethyl)propionamide] | 1 to 10 |

Same assay, conditions: comparison with reference compound RR6

| Compound | potency (half-maximal inhibitory concentration) compared to RR6 |
| --- | --- |
| O=C1NCc2nc(NCc3cccnc3)ccc21 [Compound 1, 2-((Pyridin-3-ylmethyl)amino)-6,7-dihydro-5H-pyrrolo[3,4-b]pyridin-5-one] | up to two orders of magnitude greater than RR6 |
| O=C1NCCc2nc(NCc3cccnc3)ccc21 [Compound 2, 2-((Pyridin-3-ylmethyl)amino)-7,8-dihydro-1,6-naphthyridin-5(6H)-one] | comparable to RR6 |

Test system: not listed separately
Assay: PAMPA permeability assay
Type: in vitro ADME
Conditions: 20 μM donor in PBS/MeOH 90:10, 5 hours at room temperature
Excerpt: Parallel artificial membrane permeability (PAMPA) assay is a non-cell based assay designed to predict in vivo biological membrane permeability of drugs in early stage of drug discovery. The 96-well Corning Gentest Pre-coated PAMPA Plate System (catalog no. 353015) was used to perform the assay. The Corning Gentest Pre-coated PAMPA plate system was designed by 96-well insert system with a […] PVDF (polyvinylidene fluoride) filter plate which has been pre-coated with structured tri-layers of phospholipids (lipid/oil/lipid) and a matched receiver microplate.
Donor solutions of test compounds (300 μL, 20 μM in PBS/MeOH 90:10) were added to each well of the donor plate. 200 μL of PBS/MeOH 90:10 was added to each well of the acceptor plate. The acceptor plate was coupled with the donor plate and incubated for 5 hours at room temperature (RT) without agitation. In each plate, compounds were tested in triplicate. At the end of the incubation, drug concentration in the initial donor solution, acceptor and the donor wells were determined using LC/MS/MS. A five (5) points standard curve from 0.1 to 1000 nM for each test compound were prepared. Analyte samples were diluted to within standard curve concentration with ACN/H2O 50:50 prior analysis.
All samples were analyzed by electrospray ionization (ESI) liquid chromtograph/mass spectrometry (LC/MS) system utilizing Sciex 5500 quadropule ion trap (Qtrap) mass spectrometry with Shidmazu Nexera X2 UHPLC. The LC-MS/MS instrument monitored each of the test compound in the study based of their respective mass-to-charge (m/z) transitions and MS parameters. Chromatographic separation was achieved on Phenomenex Luna C18 column (50×2.0 mm, 3 μm particle size) by using a gradient elution: mobile phase A contains 0.1% formic acid in water and mobile phase B contains 0.1% formic acid in acetonitrile; A/B (99:1) from 0 to 1 minutes; to A/B (1:99) from 1 to 4 minutes; A/B (1:99) from 4 to 8 minutes; to A/B (99:1) from 8 to 8.20 minutes; A/B (99:1) from 8.2 to 9 minutes. The flow rate was 0.4 mL/min and the column temperature was maintained at 35° C. and autosampler temperature at 4° C. For detection, the electrospray ionization operated in the positive mode using multiple reaction monitoring (MRM).
Data acquisition, and peak integrations were obtained by Analyst® Version 1.7.1 (Sciex) operating with Windows® (Microsoft). The standard curve regressions and sample concentrations were generated and calculated by Analyst®. Concentrations in the sample solutions were determined based on the measured peak area ratios from the response of the analyte to the internal standard with reference to the standard calibration curve. All sample calculations were calculated using a linear regression with 1/x2 weighting (where x is the concentration of given calibration standard level).
Permeability of the test compounds was calculated using the following formula:
Where: • A=filter area=[…] • VA=acceptor well volume (0.2 mL) • VD=donor well volume […], • t=incubation time=5 hours=18000 seconds, • CA(t)=compound concentration in acceptor well at time t (nM), • CD(t)=compound concentration in donor well at time t (nM), and […]

| Compound | Papp at 5 h, 20 µM [×10⁻⁶ cm/s] |
| --- | --- |
| CC(=O)NCCN1Cc2nc(NCc3c(F)cc(F)cc3F)ccc2C1=O [Compound 37, N-(2-(5-oxo-2-((2,4,6-trifluorobenzyl)amino)-5,7-dihydro-6H-pyrrolo[3,4-b]pyridin-6-yl)ethyl)acetamide] | 0.68 |
| CCC(=O)NCCN1Cc2nc(NCc3c(F)cc(F)cc3F)ccc2C1=O [Compound 73, N-(2-(5-oxo-2-((2,4,6-trifluorobenzyl)amino)-5,7-dihydro-6H-pyrrolo[3,4-b]pyridin-6-yl)ethyl)propionamide] | 0.79 |
| [2H]C([2H])([2H])C(=O)NCCN1Cc2nc(NCc3c(F)cc(F)cc3F)ccc2C1=O [Compound 202, N-(2-(5-oxo-2-((2,4,6-trifluorobenzyl)amino)-5,7-dihydro-6H-pyrrolo[3,4-b]pyridin-6-yl)ethyl)acetamide-2,2,2-d3] | 1.83 |
| [2H]C([2H])([2H])C([2H])([2H])C(=O)NCCN1Cc2nc(NCc3c(F)cc(F)cc3F)ccc2C1=O [Compound 204, N-(2-(5-oxo-2-((2,4,6-trifluorobenzyl)amino)-5,7-dihydro-6H-pyrrolo[3,4-b]pyridin-6-yl)ethyl)propenamide-d5] | 1.07 |

Same assay, conditions: deuterated vs non-deuterated (Compounds 37 and 73, respectively)

| Compound | permeability compared to non-deuterated counterparts |
| --- | --- |
| [2H]C([2H])([2H])C(=O)NCCN1Cc2nc(NCc3c(F)cc(F)cc3F)ccc2C1=O [Compound 202, N-(2-(5-oxo-2-((2,4,6-trifluorobenzyl)amino)-5,7-dihydro-6H-pyrrolo[3,4-b]pyridin-6-yl)ethyl)acetamide-2,2,2-d3] | improved permeability |
| [2H]C([2H])([2H])C([2H])([2H])C(=O)NCCN1Cc2nc(NCc3c(F)cc(F)cc3F)ccc2C1=O [Compound 204, N-(2-(5-oxo-2-((2,4,6-trifluorobenzyl)amino)-5,7-dihydro-6H-pyrrolo[3,4-b]pyridin-6-yl)ethyl)propenamide-d5] | improved permeability |
